# Test results: ChEMBL document CHEMBL4007419, “Discovery of hyaluronidase inhibitors from natural products and their mechanistic characterization under DMSO-perturbed assay conditions” (Bioorg Med Chem Lett, 2017)
# The source made the active and inactive calls. The calls are words filed in the database; no cut-off is given here.
# How the values were obtained:
# Homo sapiens [1] = species: Homo sapiens; test: Inhibition of CaCl2 activated hyaluronidase (unknown origin) up to 400 uM using hyaluronic acid as substrate preincubated for 20 mins followed by substrate addition measured after 10 mins in presence of up to 15% DMSO by colorimetric method
# [2] = Inhibition of hyaluronidase (unknown origin) using hyaluronic acid as substrate preincubated for 20 mins followed by substrate addition measured after 40 mins by colorimetric method; design: species or system Homo sapiens
# [3] = Inhibition of hyaluronidase (unknown origin) using hyaluronic acid as substrate preincubated for 20 mins followed by CaCl2 activation for 20 mins and subsequent substrate addition measured after 10 mins by colorimetric method; design: species or system Homo sapiens
# [4] = Inhibition of CaCl2 activated hyaluronidase (unknown origin) using hyaluronic acid as substrate preincubated for 20 mins followed by substrate addition measured after 10 mins by colorimetric method; design: species or system Homo sapiens
# [5] = Inhibition of CaCl2 activated hyaluronidase (unknown origin) using hyaluronic acid as substrate preincubated for 20 mins followed by substrate addition measured after 10 mins in presence of Triton-X-100 by colorimetric method; design: species or system Homo sapiens
# Homo sapiens [6] = species: Homo sapiens; test: Ratio of IC50 for CaCl2 activated hyaluronidase (unknown origin) to IC50 for hyaluronidase (unknown origin) using hyaluronic acid as substrate preincubated for 20 mins followed by CaCl2 activation
# Homo sapiens [7] = species: Homo sapiens; test: Inhibition of CaCl2 activated hyaluronidase (unknown origin) up to 3000 uM using hyaluronic acid as substrate preincubated for 20 mins followed by substrate addition measured after 10 mins in presence of up to 21% DMSO by colorimetric method
# Homo sapiens [8] = species: Homo sapiens; test: Inhibition of CaCl2 activated hyaluronidase (unknown origin) up to 4000 uM using hyaluronic acid as substrate preincubated for 20 mins followed by substrate addition measured after 10 mins in presence of up to 20% DMSO by colorimetric method
# [9] = Inhibition of CaCl2 activated hyaluronidase (unknown origin) using hyaluronic acid as substrate preincubated for 20 mins followed by substrate addition measured after 10 mins in presence of dithiothreitol by colorimetric method; design: species or system Homo sapiens
# Homo sapiens [10] = species: Homo sapiens; test: Non-competitive inhibition of hyaluronidase (unknown origin) up to 1000 um using hyaluronic acid as substrate preincubated for 20 mins followed by substrate addition measured after 10 mins by Lineweaver-Burk plot analysis
compound,measurement,setting,value
CC1(C)CC[C@]2(C(=O)O[C@@H]3O[C@H](CO)[C@@H](O)[C@H](O)[C@H]3O)CC[C@]3(C)C(=CC[C@@H]4[C@@]5(C)CC[C@H](O[C@@H]6O[C@H](C(=O)O)[C@@H](O[C@@H]7O[C@@H](CO)[C@H](O)[C@H]7O)[C@H](O)[C@H]6O)C(C)(C)[C@@H]5CC[C@]43C)[C@@H]2C1,inhibition,Homo sapiens [1],inactive
same,IC50,[2],24 µM
same,IC50,[3],30 µM
same,IC50,[4],80 µM
same,IC50,[5],190 µM
same,Ratio IC50,Homo sapiens [6],2.5
O=C(O[C@@H]1Cc2c(O)cc(O)cc2O[C@@H]1c1cc(O)c(O)c(O)c1)c1cc(O)c(O)c(O)c1,inhibition,Homo sapiens [7],Active
Oc1cc(O)c2c(c1)O[C@H](c1ccc(O)c(O)c1)[C@@H](O)C2,inhibition,Homo sapiens [8],Active
Oc1cc(O)c2c(c1)O[C@@H](c1ccc(O)c(O)c1)[C@H](O)C2 [(-)-CATECHIN],IC50,[2],1100 µM
Oc1cc(O)c2c(c1)O[C@H](c1ccc(O)c(O)c1)[C@H](O)C2 [(-)-EPICATECHIN],IC50,[2],804 µM
same,IC50,[3],685 µM
same,IC50,[4],789 µM
same,IC50,[5],734 µM
same,IC50,[9],806 µM
same,inhibition,Homo sapiens [7],Active
same,inhibition,Homo sapiens [10],Active
O=C(O)[C@H]1O[C@@H](Oc2cc3oc(-c4ccccc4)cc(=O)c3c(O)c2O)[C@H](O)[C@@H](O)[C@@H]1O [BAICALIN],IC50,[2],506 µM
CC1(C)CC[C@]2(C(=O)O[C@@H]3O[C@H](CO)[C@@H](O)[C@H](O)[C@H]3O)CC[C@]3(C)C(=CC[C@@H]4[C@@]5(C)CC[C@H](O[C@@H]6O[C@H](C(=O)O)[C@@H](O)[C@H](O)[C@H]6O[C@@H]6O[C@H](CO)[C@@H](O)[C@H](O)[C@H]6O)C(C)(C)[C@@H]5CC[C@]43C)[C@@H]2C1 [GINSENOSIDE R0],IC50,[2],34 µM
CC1(C)[C@@H](O[C@H]2O[C@H](C(=O)O)[C@@H](O)[C@H](O)[C@H]2O[C@@H]2O[C@H](C(=O)O)[C@@H](O)[C@H](O)[C@H]2O)CC[C@]2(C)[C@H]3C(=O)C=C4[C@@H]5C[C@@](C)(C(=O)O)CC[C@]5(C)CC[C@@]4(C)[C@]3(C)CC[C@@H]12 [GLYCYRRHIZIN],IC50,[2],8.5 µM
